According to ChEMBL document CHEMBL4392879, “Secondary Metabolites of Onygenales Fungi Exemplified by Aioliomyces pyridodomos” (J Nat Prod, 2019):
Converted amounts (≈) assume the structure as drawn.

System: Histoplasma capsulatum
Assay: Antifungal activity against Histoplasma capsulatum G217B after 10 to 14 days by microscopic method
Type: functional, organism-based

| SMILES | IC50 |
| --- | --- |
| C/C=C/C=C/c1c(CC=C(C)C)cc(CC=C(C)C)c(O)c1CO | 8 µg/mL (≈ 24.5 µM) |
| C/C=C/C=C/c1c(CC=C(C)C)cc2c(c1CO)OC(C)(C)C(O)C2=O (stereo unspecified) | 16 µg/mL (≈ 44.9 µM) |
| CC(C)=CCc1cc2c(c3c1[C@@H]1C[C@H](C3=O)[C@@H]1C)OC(C)(C)[C@H](O)C2=O | 64 µg/mL (≈ 181 µM) |
| CC(C)=CCc1cc2c(c3c1[C@@H]1C[C@H](C3=O)[C@@H]1C)OC(C)(C)[C@@H](O)C2=O | 32 µg/mL (≈ 90.3 µM) |
| C[C@@H]1[C@H](O)[C@@H](C)/C=C/C=C/C=C/C=C/C=C/C=C/C=C/[C@H](O[C@@H]2O[C@H](C)[C@@H](O)[C@H](N)[C@@H]2O)C[C@@H]2O[C@](O)(C[C@@H](O)C[C@@H](O)[C@H](O)CC[C@@H](O)C[C@@H](O)CC(=O)O[C@H]1C)C[C@H](O)[C@H]2C(=O)O [AMPHOTERICIN B] | 0.5 µg/mL (≈ 0.541 µM) |
| CCC(C)n1ncn(-c2ccc(N3CCN(c4ccc(OCC5COC(Cn6cncn6)(c6ccc(Cl)cc6Cl)O5)cc4)CC3)cc2)c1=O (stereo unspecified) [ITRACONAZOLE] | 0.001 µg/mL (≈ 0.00142 µM) |
